In patent US20160318856A1, “Substituted Urea eIF2alpha Kinase Activators” (THE BRIGHAM AND WOMEN'S HOSPITAL, INC., priority 2013, published 2016):
Where two headings read alike, the source gives them in different places.

Columns and labels:
[1] = test system: eIF2α phosphorylation (eIF2•GTP•Met-tRNAi ternary complex; HRI activation); assay: surrogate dual luciferase eIF2α phosphorylation (ternary complex) assay; assay type: cell-based, human; settings: Homo sapiens; surrogate eIF2α phosphorylation assay, Table 3; read-out: Emax (F/R)
Procedure, shortened: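 Cell-based dual luciferase reporter: firefly luciferase behind the ATF-4 5′UTR (uORFs) and renilla luciferase behind a uORF-free 5′UTR, read with a dual glow kit. Activity given as firefly/renilla ratio normalised to DMSO wells set at 1, with a rising ratio reflecting reduced ternary complex (e.g., HRI activation).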

[2] = test system: CRL-2813 human melanoma cancer cells; assay: cell proliferation (SRB) assay, CRL-2813; assay type: cell-based; settings: Homo sapiens, CRL2813
Procedure, shortened: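 Cells exposed 5 days to 0.5–20 μM compound, then TCA-fixed and stained with sulforhodamine B. Growth as 100×[(T−T0)/(C−T0)] from absorbance of treated, control and time-zero cultures; cell death as 100×[(T−T0)/T0] where T is below T0.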

NIH/3T3 fibroblast cells = assay: cell proliferation (SRB) assay, NIH/3T3; assay type: cell-based; settings: for IC50: Mus musculus, NIH3T3
Procedure: (§1) Cells were seeded in 96-well plates and maintained for 5 days in the presence of 0.5 to 20 μM of individual compound, and cell proliferation was measured by the sulforhodamine B (SRB) assay as described previously (see, for example, Palakurthi, S. S. et al. Cancer Research 2000, 60(11), 2919-2925). Briefly, at the end of a 5-day treatment, cells were fixed in 10% cold trichloroacetic acid. Cell number was estimated by measuring the remaining bound dye of sulforhodamine B after washing. The percentage of growth was calculated by using the equation: 100×[(T−T0)/(C−T0)], where T and C represent the absorbance in treated and control cultures at Day 5, and T0 at time zero, respectively. If T is less than T0, cell death has occurred and can be calculated from 100×[(T−T0)/T0].
The experiments were conducted in triplicate, and each experiment was independently performed three times. IC50=effective dose of drug that inhibit cell proliferation by 50%. Data are shown as Mean±S.E.M.
Compounds I-6p, I-17, I-18 and I-20 were tested in NIH/3T3 fibroblast and CRL-2813 melanoma cancer cells in cell proliferation assay. The experiment was conducted in triplicate and each experiment was independently performed three times. Data are shown as Mean IC50±S.E.M.

T47D = assay: cell proliferation assay, T47D; assay type: cell-based; settings: Homo sapiens, Breast
Procedure: as §1

RAMOS = assay: cell proliferation assay, RAMOS; assay type: cell-based; settings: Homo sapiens, Lymphoma
Procedure: as §1

ACHN = assay: cell proliferation assay, ACHN; assay type: cell-based; settings: Homo sapiens, Kidney
Procedure: as §1

Huh-7 = assay: cell proliferation assay, Huh-7; assay type: cell-based; settings: Homo sapiens; Huh-7, Liver
Procedure: as §1

HEP B3 = assay: cell proliferation assay, HEP B3; assay type: cell-based; settings: HEP B3, Liver
Procedure: as §1

A-549 = assay: cell proliferation assay, A-549; assay type: cell-based; settings: Homo sapiens, A549; A-549, Lung
Procedure: as §1

ASPC-1 = assay: cell proliferation assay, ASPC-1; assay type: cell-based; settings: Homo sapiens, ASPC1; ASPC-1, Pancreas; read-out: IC50
Procedure: as §1
The compounds shown in Table 7 were evaluated using for activation of HRI using the dual luciferase surrogate eIF2α phosphorylation assay (see, for example, Chen, T. et al. Nature Chem Biol 2011, 7, 610-616) and for inhibition of cell proliferation using the SRB assay (see, for example, Palakurthi, S. S. et al. Cancer Res 2000, 60, 2919-2925) as described above.

HT-29 = assay: cell proliferation assay, HT-29; assay type: cell-based; settings: Homo sapiens; HT-29, Colon
Procedure: as §1

[3] = test system: MCF-7 human breast cancer cells; assay: cell proliferation assay, MCF-7; assay type: cell-based; settings: MCF7, MCF-7, Breast
Procedure: as §1

Compound `O=C(Nc1cccc(C(F)(F)F)c1)NC1CCC(Oc2ccc(OC(F)(F)F)cc2)CC1` (stereo not drawn) [Compound I-17, 1-(4-(4-(trifluoromethoxy)phenoxy)cyclohexyl)-3-(3-(trifluoromethyl)phenyl)urea] has a maximal fold induction [1] of 15.4, an IC50 ([2]; CRL-2813, Table 8, Mean IC50±S.E.M., read-out: IC50 of compounds) of 690 ± 100 nM and an IC50 ([2]; cell proliferation assay, Table 3, cell line not named, values equal CRL-2813 values of Table 8, read-out: IC50) of 690 ± 100 nM. For the same compound, the “fold higher potency on cancer cells compared to non-transformed cells” value (NIH/3T3 fibroblast cells; CRL-2813 human melanoma vs NIH-3T3 fibroblast) was “five-fold higher potency”, the IC50 (NIH/3T3 fibroblast cells; NIH/3T3, Table 5, Mean±S.E.M., read-out: IC50) was 3400 ± 200 nM and the IC50 (NIH/3T3 fibroblast cells; NIH/3T3, Table 8, Mean IC50±S.E.M., read-out: IC50 of compounds) was 3400 ± 200 nM. For the same compound, the IC50 (T47D) was 1200 nM, the IC50 (RAMOS) was 800 nM and the IC50 (ACHN) was 1400 nM. For the same compound, the IC50 (Huh-7) was 2100 nM, the IC50 (HEP B3) was 1800 nM and the IC50 (A-549) was 900 nM. It also gave an IC50 (ASPC-1) of 2400 nM, an IC50 (HT-29) of 2700 nM and an IC50 [3] of 1300 nM.
